In patent US20230159445A1, “STAT INHIBITORY COMPOUNDS AND COMPOSITIONS” (JANPIX LIMITED, priority 2020, published 2023):

test system: MV4-11 cells; test: MV4-11 Cell Cytotoxicity Assay (CellTiter-Blue, 72 h); format: cell-based, human; details: Homo sapiens, MV4-11; MV-4-11 cells
Method: In some embodiments, the potency of the STAT5 inhibitors are evaluated by an in vitro assay such as MV4-11 Cell Cytotoxicity Assay. […] 10,000 cells were plated per well in 96-well flat-bottom sterile culture plates with low-evaporation lids. After 24 h, inhibitors and a vehicle control (0.5% DMSO) were added and the cells were incubated for 72 h at 37° C. in 5% CO2. Inhibitors were examined in triplicate at a maximal concentration of 50 μM, followed by 1:2 dilutions in subsequent wells (25, 12.5, 6.25, 3.125, 1.5625, 0.78125, 0.390625, 0.195313 and 0.097656 μM). After 72 h, the wells were treated with CellTiter-Blue® (20 μL/well), and the plates were incubated using standard cell culture conditions for 1 hour. Fluorescence was measured at 560/590 nm.

Structure (SMILES)	IC50 [µM]
Cc1cc(C(=O)O)cc(C)c1N(Cc1cc(C2CC2)cc(N2CCCC2)c1)C(=O)CN(Cc1c(F)cc(F)cc1F)S(=O)(=O)c1c(F)c(F)c(F)c(F)c1F [Compound 1205, 4-(N-(3-cyclopropyl-5-(pyrrolidin-1-yl)benzyl)-2-(N-(2,4,6-trifluorobenzyl)-(2,3,4,5,6-pentafluoro-phenyl)sulfonamido)acetamido)-3,5-dimethylbenzoic acid]	0.316 to 1
Cc1cc(C(=O)O)cc(C)c1N(Cc1cc(C2CC2)cc(N2CCCC2)c1)C(=O)CN(Cc1ccc(F)cc1Cl)S(=O)(=O)c1c(F)c(F)c(F)c(F)c1F [Compound 1206, 4-(2-(N-(2-chloro-4-fluorobenzyl)-(2,3,4,5,6-pentafluorophenyl)sulfon-amido)-N-(3-cyclopropyl-5-(pyrrolidin-1-yl)benzyl)acetamido)-3,5-dimethylbenzoic acid]	0.316 to 1
CC(C)(C)c1cc(CN(C(=O)CN(Cc2ccc(F)cc2Cl)S(=O)(=O)c2c(F)c(F)c(F)c(F)c2F)c2ccc(C(=O)O)c(C(F)(F)F)c2)cc(C2CC2)c1 [Compound 1229, 4-(N-(3-(tert-butyl)-5-cyclopropylbenzyl)-2-(N-(2-chloro-4-fluorobenzyl)-(2,3,4,5,6-pentafluorophenyl)sulfon-amido)acetamido)-2-(trifluoromethyl) benzoic acid]	1 to 3.16

same assay, conditions: Homo sapiens; MV4-11 cells, 72 h, CellTiter-Blue; read-out: IC50- MV-4-11

Structure (SMILES)	IC50 [µM]
CC(C)(C)c1cc(N(C(=O)CN(Cc2ccc(Cl)cc2)S(=O)(=O)c2c(F)c(F)c(F)c(F)c2F)c2ccc(C(=O)O)cc2)cc(C(C)(C)C)c1 [Compound 2002, 4-(2-(N-(4-chlorobenzyl)-(2,3,4,5,6-pentafluorophenyl)sulfon-amido)-N-(3,5-di-tert-butylphenyl)acetamido)ben-zoic acid]	0.316 to 1
CC(C)(C)c1cc(CN(C(=O)CN(Cc2ccccc2)S(=O)(=O)c2c(F)c(F)c(F)c(F)c2F)c2ccc(C(=O)O)c(O)c2)cc(C(C)(C)C)c1 [Compound 2003, 4-(2-(N-benzyl-(2,3,4,5,6-pentafluorophenyl)sulfon-amido)-N-(3,5-di-tert-butylbenzyl)acetamido)-2-hydroxybenzoic acid]	1 to 3.16
CC(C)(C)c1cc(C(=O)N(CCN(Cc2ccc(Cl)cc2)S(=O)(=O)c2c(F)c(F)c(F)c(F)c2F)c2ccc(C(=O)O)cc2)cc(C(C)(C)C)c1 [Compound 2005, 4-(3,5-di-tert-butyl-N-(2-(N-(4-chlorobenzyl)-(2,3,4,5,6-pentafluorophenyl)sulfon-amido)ethyl)benzamido)ben-zoic acid]	0.316 to 1
O=C(O)c1ccc(N(Cc2ccc3c(c2)OCCO3)C(=O)CN(Cc2ccc(Cl)cc2)S(=O)(=O)c2c(F)c(F)c(F)c(F)c2F)cc1O [Compound 2006, 4-(2-(N-(4-chlorobenzyl)-(2,3,4,5,6-pentafluorophenyl)sulfon-amido)-N-((2,3-dihydrobenzo[b][1,4]dioxin-6-yl)methyl)acetamido)-2-hydroxybenzoic acid]	3.16 to 100
CC(C)COc1cc(CN(C(=O)CN(Cc2ccc(Cl)cc2)S(=O)(=O)c2c(F)c(F)c(F)c(F)c2F)c2ccc(C(=O)O)c(O)c2)cc(OCC(C)C)c1 [Compound 2007, 4-(2-(N-(4-chlorobenzyl)-(2,3,4,5,6-pentafluorophenyl)sulfon-amido)-N-(3,5-diisobutoxybenzyl)acetami-do)-2-hydroxybenzoic acid]	3.16 to 100
CC(C)(C)c1cc(CN(C(=O)CN(C23CC(C2)C3)S(=O)(=O)c2c(F)c(F)c(F)c(F)c2F)c2ccc(C(=O)O)c(O)c2)cc(C2CC2)c1 [Compound 2008, 4-(2-(N-(bicyclo[1.1.1]pentan-1-yl)-(2,3,4,5,6-pentafluorophenyl)sulfon-amido)-N-(3-(tert-butyl)-5-cyclopropylbenzyl)acetami-do)-2-hydroxybenzoic acid]	3.16 to 100
O=C(O)c1ccc(N(Cc2cc(OCC(F)(F)F)cc(OCC(F)(F)F)c2)C(=O)CN(Cc2ccc(Cl)cc2)S(=O)(=O)c2c(F)c(F)c(F)c(F)c2F)cc1O [Compound 2009, 4-(N-(3,5-bis(2,2,2-trifluoroethoxy)benzyl)-2-(N-(4-chlorobenzyl)-(2,3,4,5,6-pentafluorophenyl)sulfon-amido)acetamido)-2-hydroxybenzoic acid]	3.16 to 100
O=C(O)c1ccc(N(Cc2cc(O)cc(O)c2)C(=O)CN(Cc2ccc(Cl)cc2)S(=O)(=O)c2c(F)c(F)c(F)c(F)c2F)cc1O [Compound 2010, 4-(2-(N-(4-chlorobenzyl)-(2,3,4,5,6-pentafluorophenyl)sulfon-amido)-N-(3,5-dihydroxybenzyl)acetamido)-2-hydroxybenzoic acid]	3.16 to 100
CC(C)(C)c1cccc(CN(C(=O)CN(C23CC(C2)C3)S(=O)(=O)c2c(F)c(F)c(F)c(F)c2F)c2ccc(C(=O)O)c(O)c2)c1 [Compound 2011, 4-(2-(N-(bicyclo[1.1.1]pentan-1-yl)-(2,3,4,5,6-pentafluorophenyl)sulfon-amido)-N-(3-(tert-butyl)benzyl)acetamido)-2-hydroxybenzoic acid]	1 to 3.16
O=C(O)c1ccc(N(Cc2cc(Cl)cc(Cl)c2)C(=O)CN(Cc2ccc(Cl)cc2)S(=O)(=O)c2c(F)c(F)c(F)c(F)c2F)cc1O [Compound 2012, 4-(2-(N-(4-chlorobenzyl)-(2,3,4,5,6-pentafluorophenyl)sulfon-amido)-N-(3,5-dichlorobenzyl)acetamido)-2-hydroxybenzoic acid]	3.16 to 100
CC(C)(C)c1cc(N(C(=O)CN(Cc2ccc(Cl)cc2)S(=O)(=O)c2c(F)c(F)c(F)c(F)c2F)c2ccc(C(=O)O)c(O)c2)cc(C(C)(C)C)c1 [Compound 2014, 4-(2-(N-(4-chlorobenzyl)-(2,3,4,5,6-pentafluorophenyl)sulfon-amido)-N-(3,5-di-tert-butylphenyl)acetamido)-2-hydroxybenzoic acid]	1 to 3.16
COc1cc(C(=O)O)ccc1N(C)C(=O)CN(Cc1ccccc1C(F)(F)F)S(=O)(=O)c1c(F)c(F)c(F)c(F)c1F [Compound 2018, 3-methoxy-4-(N-methyl-2-(N-(2-(trifluoromethyl)benzyl)-(2,3,4,5,6-pentafluoro-phenyl)sulfonamido)acetami-do)benzoic acid]	1 to 3.16
CC1(C)OC(=O)c2ccc(N(Cc3cc(C4CC4)cc(C(C)(C)C)c3)C(=O)CN(Cc3ccc(Cl)cc3)S(=O)(=O)c3c(F)c(F)c(F)c(F)c3F)cc2O1 [Compound 2022, N-(3-(tert-butyl)-5-cyclopropylbenzyl)-2-(N-(4-chlorobenzyl)-(2,3,4,5,6-pentafluorophenyl)sulfon-amido)-N-(2,2-dimethyl-4-oxo-4H-benzo[d][1,3]dioxin-7-yl)acetamide]	3.16 to 100

same assay, conditions: MV4-11 cells, 72 h, CellTiter-Blue; read-out: IC50- MV-4-11

Structure (SMILES)	IC50 [µM]
O=C(O)c1ccc(N(Cc2cc(Cl)cc(Br)c2)C(=O)CN(Cc2ccc(Cl)cc2)S(=O)(=O)c2c(F)c(F)c(F)c(F)c2F)cc1O [Compound 2013, 4-(N-(3-bromo-5-chlorobenzyl)-2-(N-(4-chlorobenzyl)-(2,3,4,5,6-pentafluorophenyl)sulfon-amido)acetamido)-2-hydroxybenzoic acid]	3.16 to 100

test system: glutathione (GSH); test: Reactivity Profiling with Glutathione (GSH), half-life by HPLC; details: 5 mM glutathione (GSH) in IMDM with 10% FBS

half-life at 25 μM [h]	Structure (SMILES)
0.00167 to 2.37	O=C(O)c1ccc(N(Cc2cccc(N3CCCC3)c2)C(=O)CN(Cc2cnccc2C(F)(F)F)S(=O)(=O)c2c(F)c(F)c(F)c(F)c2F)c(OC2CC2)c1 [Compound 1159, 3-cyclopropoxy-4-(2-(N-((4-(trifluoromethyl)pyridin-3-yl)methyl)-(2,3,4,5,6-pentafluoro-phenyl)sulfonamido)-N-(3-(pyrrolidin-1-yl)benzyl)acetamido) benzoic acid]
0.00167 to 2.37	O=C(O)c1ccc(N(Cc2cccc(N3CCCC3)c2)C(=O)CN(Cc2ncccc2C(F)(F)F)S(=O)(=O)c2c(F)c(F)c(F)c(F)c2F)c(OC2CC2)c1 [Compound 1160, 3-cyclopropoxy-4-(2-(N-((3-(trifluoromethyl)pyridin-2-yl)methyl)-(2,3,4,5,6-pentafluoro-phenyl)sulfonamido)-N-(3-(pyrrolidin-1-yl)benzyl)acetamido) benzoic acid]
9.23 to 1670	COc1cc(C(=O)OC(C)C)ccc1N(Cc1cc(C2CC2)cc(C(C)(C)C)c1)C(=O)CN(Cc1cnccc1C(F)(F)F)S(=O)(=O)c1c(F)c(F)c(F)c(F)c1F [Compound 1172, isopropyl 4-(N-(3-(tert-butyl)-5-cyclopropylbenzyl)-2-(N-((4-(trifluoromethyl)pyridin-3-yl)methyl)-(2,3,4,5,6-pentafluoro-phenyl)sulfonamido)acetamido)-3-methoxybenzoate]
0.00167 to 2.37	COc1cc(C(=O)O)ccc1N(Cc1cc(C2CC2)cc(C(C)(C)C)c1)C(=O)CN(Cc1ncc(Cl)cc1F)S(=O)(=O)c1c(F)c(F)c(F)c(F)c1F [Compound 1177, 4-(N-(3-(tert-butyl)-5-cyclopropylbenzyl)-2-(N-((5-chloro-3-fluoropyridin-2-yl)methyl)-(2,3,4,5,6-pentafluorophenyl)sulfon-amido)acetamido)-3-methoxybenzoic acid]
9.23 to 1670	COc1cc(O)ccc1N(Cc1cc(C2CC2)cc(C(C)(C)C)c1)C(=O)CN(Cc1cnccc1C(F)(F)F)S(=O)(=O)c1c(F)c(F)c(F)c(F)c1F [Compound 1267, N-(3-(tert-butyl)-5-cyclopropylbenzyl)-N-(4-hydroxy-2-methoxyphenyl)-2-(N-((4-(trifluoromethyl)pyridin-3-yl)methyl)-(2,3,4,5,6-pentafluoro-phenyl)sulfonamido) acetamide]
